Measured values reported in PubChem BioAssay (NCI).
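Cultured in 96-well plates, cells were exposed to test compound for 48 hours across five concentrations. Abbreviation: GI50, concentration required for 50% inhibition of growth. The concentration for full growth arrest is given as TGI.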

What follows are compounds tested on MDA-MB-468 breast (assay: growth of human tumour cells (NCI), 48 h).

SMILES | GI50 | TGI
COc1cccc(CCC2CCCN(c3cc(C)nc(N)n3)C2)c1 (stereo not given) | 180 nM | 952 nM
CSC1=Nc2c(c(C)c(-c3ccccc3)n2CCCN2CCCCC2)C2=NC(=O)C[C@H](C)N12 | 2460 nM | 9510 nM
C[C@]12CCc3nc(Nc4cccc(O)c4)sc3C1=CC[C@@H]1[C@@H]2CC[C@]2(C)/C(=N\NC(N)=S)CC[C@@H]12 | 1860 nM | 4230 nM
c1ccc(N2N=C(c3cccc(Nc4ccncc4)c3)CC2c2ccc3c(c2)OCO3)cc1 (stereo not given) | 1470 nM | 3000 nM
COc1ccc(N=Cc2c(O)ccc3c2oc2cc(Cl)c(O)c(Cl)c23)cc1 | 14200 nM | 67600 nM
CN(C)c1ccc(/C=C/c2ccnc3c(O)cccc23)cc1 | 574 nM | 3340 nM
COC(=O)[C@@H](C)C[C@H](Cc1cn(C)c2ccccc12)NC(=O)c1csc([C@@H](C[C@H](C(C)C)N(C)C(=O)[C@@H](NC(=O)[C@H]2CCCCN2C)C(C)C)OC(C)=O)n1 | 5.85 nM | > 16700 nM
CSc1ccc(-c2ccccc(=O)c2O)cc1 | 334 nM | 4180 nM
Cc1cc(Nc2ccc(OCc3ccccc3)cc2)nc2cc(O)ccc12 | 2590 nM | 8740 nM
CC[C@@H]1[C@@H](C)O[C@@](O)([C@@H](C)[C@H](O)[C@H](C)[C@H]2OC(=O)/C=C/C=C/[C@H](C)[C@@H]([C@@H](C)[C@@H](O)[C@H](C)[C@@]3(O)C[C@@H](O[C@H]4C[C@@H](O)[C@H](O)C(C)O4)[C@H](CC)[C@@H](C)O3)OC(=O)/C=C/C=C/[C@@H]2C)C[C@H]1O[C@@H]1C[C@@H](O)[C@H](O)C(C)O1 (stereo not given in full) | 68.8 nM | 204 nM
CC[C@H](NC(=O)[C@H]1CCCCN1C)C(=O)N(C)[C@H](C[C@@H](OC(C)=O)c1nc(C(=O)N[C@@H](Cc2ccccc2)C[C@H](C)C(=O)O)cs1)C(C)C | 1.99 nM | > 14300 nM
COc1ccc2sc3cccc(NCCN(C)C)c3c(=O)c2c1 | 2000 nM | 4500 nM
Nc1ccccc1NC(=O)c1ccc(CNc2nccc(-c3cccnc3)n2)cc1 | 496 nM | 2250 nM
CC(C)(C)N1CCC1CN (stereo not given) | > 100000 nM | > 100000 nM
O=C1CC[C@H](N2C(=O)c3cccc4c(Cc5ccc(CN6CCOCC6)cc5)ccc2c34)C(=O)N1 | 2730 nM | 62500 nM
NCCCNc1nc2ccccc2c2c(=O)c3cc(F)cc(F)c3sc12 | 1710 nM | 3810 nM
CCN(CC)CCNc1ccc(C)c2sc3cc(Cl)ccc3c(=O)c12 | 2070 nM | 4210 nM
COc1cc([C@@H]2c3cc4c(c(O)c3C[C@H]3COC(=O)[C@@H]32)OCO4)cc(OC)c1OC | 65.7 nM | 311 nM
NC1=CC(=O)c2cccnc2C1=O | 1350 nM | 3030 nM
Cc1cccc(-c2[nH]ncc2-c2ccc3ncccc3n2)n1 | 7340 nM | > 16500 nM
C=C(C)[C@@H]1CC[C@]2(COCCC#N)CC[C@]3(C)[C@H](CC[C@@H]4[C@@](C)(CCCNCCC#N)[C@H](C(=C)C)CC[C@]43C)[C@@H]12 | 17300 nM | > 50000 nM
COc1ccc(C(=O)Nc2ncc(Cc3cccc(Cl)c3)s2)cc1OC | 307 nM | > 95900 nM
N#Cc1c(NC(=O)NCc2ccccc2)sc2c1CCCC2 | 425 nM | 11300 nM
Oc1ccc(CSc2nnc(-c3ccncc3)o2)c2cccnc12 | 2270 nM | 8640 nM

SMILES | GI50 | TGI
CCOC(=O)c1ccccc1OC(=O)NNc1ccccc1 | 11100 nM | > 100000 nM
CCOC(=O)c1ccc(Nc2sc(C(=O)c3ccc(Br)cc3)c(N)c2C#N)cc1 | 666 nM | > 100000 nM
COc1cc2nccc(Oc3ccc(NC(=O)NC4CC4)c(Cl)c3)c2cc1C(N)=O | 12500 nM | > 80800 nM
COC1=CC(c2ccc[nH]2)=N/C1=C\c1[nH]c(C)c(CC(=O)OCc2ccccc2)c1CCC(=O)OCc1ccccc1 | 510 nM | 2960 nM
O=C(COc1ccc(/C=C2\COc3ccccc3C2=O)cc1)Nc1nccs1 | 2040 nM | 4730 nM
CN1CCC(COc2cnc(-c3cccc(Cn4nc(-c5cccc(C#N)c5)ccc4=O)c3)nc2)CC1 | 1490 nM | 3230 nM
Cc1ccc(Cl)cc1Nc1nc(C(F)(F)F)ccc1C(=O)N/N=C/c1cccnc1 | 1410 nM | 10200 nM
C[C@]12CC[C@@H]3c4cc(OC(F)F)c(O)cc4CC[C@H]3[C@@H]1CC[C@@H]2OS(N)(=O)=O | 504 nM | 30400 nM
COc1ccc(/C=C(/C(=O)N2CCN(c3ccccc3)CC2)c2cc(OC)c(OC)c(OC)c2)cc1N | 251 nM | > 100000 nM
Cc1cc(Cl)cc2c(N=Nc3ccc(S(N)(=O)=O)cc3)c(O)[nH]c12 | > 25000 nM | > 25000 nM
O=C1/C(=C\c2ccc(F)cc2)CN(C(=O)c2ccccc2)C/C1=C\c1ccc(F)cc1 | 1630 nM | 3710 nM
CC[C@H]1CN2CCc3cc(OC)c(OC)cc3C2C[C@@H]1CC1NCCc2cc(OC)c(OC)cc21 (stereo not given in full) | 11.8 nM | 37.7 nM
CCOC(=O)[C@@H](C)C[C@H](Cc1ccccc1)NC(=O)c1nc([C@@H](C[C@H](C(C)C)N(C)C(=O)[C@@H](NC(=O)[C@H]2CCCCN2C)C(C)C)OC(C)=O)sc1CCOCc1ccccc1 | 37.4 nM | 492 nM
CCOC(=O)C1=C(C)N=c2s/c(=C\c3ccccc3O)c(=O)n2C1c1ccc(OC)c2ccccc12 (stereo not given) | 4550 nM | 21200 nM
C[n+]1c(/C=C/c2c[nH]c3ccccc23)ccc2ccccc21 | 1800 nM | 13000 nM
NS(=O)(=O)OCC1OC(n2cnc3cncnc32)C(O)C1O (stereo not given) | 18.9 nM | 48.5 nM
COc1cc2c(c(OC)c1OC)-c1ccc(OC)c(=O)cc1[C@@H](N)CC2 | < 10 nM | 
CCCCCCCC/C=C/CCCCCCCC1=NC(C)(C)CN1CC(C)O (stereo not given) | 4870 nM | 10900 nM
CCN(CC)c1ccc(NC2=C(Cl)C(=O)c3nc(C)ccc3C2=O)cc1 | 1880 nM | 4050 nM
Cn1cc(C2=C(c3ccccc3[N+](=O)[O-])C(=O)NC2=O)c2ccccc21 | 4080 nM | 10500 nM
Cc1ccc(NC(=O)c2ccc(CN3CCN(C)CC3)cc2)cc1Nc1nccc(-c2cccnc2)n1 | 13900 nM | 36200 nM
Cc1cc(=O)[nH]c(N/N=C/c2cc(Br)ccc2O)n1 | 460 nM | 16500 nM
Nc1c(C(=O)c2ccc(-c3cccnc3)cc2)cnn1-c1ccc(F)cc1 | > 25000 nM | > 25000 nM
CC1(C)N=C(N)N=C(N)N1c1ccc(CCCCc2ccccc2)c(Cl)c1 | 19.6 nM | 1120 nM
